Source: article PMC11396129, “Oxindole–benzothiazole hybrids as CDK2 inhibitors and anticancer agents: design, synthesis and biological evaluation” (BMC Chemistry, 2024)

Experiments:
[1] = target: VEGFR-2 (Homo sapiens, UniProt P35968); experiment: Kinase inhibitory activity on VEGFR-2; type: biochemical; conditions: mean of two independent experiments ± SD
[2] = test system: SK-MEL-2; experiment: NCI 60 panel growth inhibition (SRB), melanoma; type: cell-based, human
Outline: (§1)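 SRB absorbance read-out; growth computed as [(Ti−Tz)/(C−Tz)]×100 when Ti≥Tz, else [(Ti−Tz)/Tz]×100. TGI taken where Ti = Tz. Five drug concentrations per line, seeding 5000–40,000 cells/well, time-zero fixation at 24 h.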

[3] = test system: 786-0; experiment: NCI 60 panel growth inhibition (SRB), renal cancer; type: cell-based, human; conditions: for GI%: 786-0, 10 μM
Outline: as §1

[4] = test system: UO-31; experiment: NCI 60 panel growth inhibition (SRB), renal cancer; type: cell-based, human; conditions: for GI%: UO-31, 10 μM
Outline: as §1

[5] = test system: TK-10; experiment: NCI 60 panel growth inhibition (SRB), renal cancer; type: cell-based, human; conditions: for GI%: TK-10, 10 μM
Outline: as §1

[6] = test system: RXF 393; experiment: NCI 60 panel growth inhibition (SRB), renal cancer; type: cell-based, human; conditions: for GI%: RXF 393, 10 μM
Outline: as §1

[7] = test system: SF-268; experiment: NCI 60 panel growth inhibition (SRB), CNS cancer; type: cell-based, human; conditions: for GI%: SF-268, 10 μM
Outline: as §1

[8] = test system: SF-295; experiment: NCI 60 panel growth inhibition (SRB), CNS cancer; type: cell-based, human; conditions: for GI%: SF-295, 10 μM
Outline: as §1

[9] = test system: SNB-75; experiment: NCI 60 panel growth inhibition (SRB), CNS cancer; type: cell-based, human; conditions: SNB-75, 10 μM
Outline: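 Selected compounds progressed from a single-dose mean-graph screen to five-concentration testing. Percentage growth, with negative values indicating cell kill below Tz, was computed per level, giving TGI among three parameters.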

[10] = test system: SF-539; experiment: NCI 60 panel growth inhibition (SRB), CNS cancer; type: cell-based, human; conditions: for GI%: SF-539, 10 μM
Outline: as §1

[11] = test system: U251; experiment: NCI 60 panel growth inhibition (SRB), CNS cancer; type: cell-based, human; conditions: for GI%: U251, 10 μM
Outline: as §1

[12] = test system: SNB-19; experiment: NCI 60 panel growth inhibition (SRB), CNS cancer; type: cell-based, human; conditions: for GI%: SNB-19, 10 μM
Outline: as §1

[13] = test system: OVCAR-5; experiment: NCI 60 panel growth inhibition (SRB), ovarian cancer; type: cell-based, human; conditions: for GI%: OVCAR-5, 10 μM
Outline: as §1

[14] = test system: SK-OV-3; experiment: as above; type: cell-based, human
Outline: as §1

[15] = test system: NCI/ADR-RES; experiment: as above; type: cell-based, human; conditions: for GI%: 10 μM
Outline: as §1

[16] = test system: OVCAR-4; experiment: as above; type: cell-based, human; conditions: for GI%: OVCAR-4, 10 μM
Outline: as §1

[17] = test system: OVCAR-8; experiment: as above; type: cell-based, human; conditions: for GI%: OVCAR-8, 10 μM
Outline: as §1

[18] = test system: OVCAR-3; experiment: as above; type: cell-based, human; conditions: for GI%: OVCAR-3, 10 μM
Outline: as §1

[19] = test system: IGROV1; experiment: as above; type: cell-based, human; conditions: for GI%: IGROV1, 10 μM
Outline: as §1

[20] = target: T1, CDK2 (Homo sapiens, UniProt P24941); experiment: CDK2 kinase assay (BPS kit, Kinase-Glo Max); type: biochemical; conditions: for IC50: mean of two independent experiments ± SD
T1 construct: purchased BPS Biosciences 79599

[21] = target: CDK5 (Homo sapiens, UniProt Q00535); experiment: Kinase inhibitory activity on CDK5; type: biochemical; conditions: mean of two independent experiments ± SD
[22] = test system: HT29; experiment: NCI 60 panel growth inhibition (SRB), colon cancer; type: cell-based, human; conditions: for GI%: HT29, 10 μM
Outline: as §1

[23] = test system: NCI 60 cancer cell line panel; experiment: NCI 60 panel growth inhibition (SRB), whole panel; type: cell-based, human; conditions: for Mean GI%: mean over NCI 60 panel, 10 μM
Outline: as §1

[24] = test system: RPMI-8226; experiment: NCI 60 panel growth inhibition (SRB), leukemia; type: cell-based, human; conditions: for GI%: RPMI-8226, 10 μM
Outline: as §1

[25] = test system: MOLT-4; experiment: NCI 60 panel growth inhibition (SRB), leukemia; type: cell-based, human; conditions: for GI%: MOLT-4, 10 μM
Outline: as §1

[26] = test system: HL-60(TB); experiment: NCI 60 panel growth inhibition (SRB), leukemia; type: cell-based, human; conditions: for GI%: HL-60(TB), 10 μM
Outline: as §1

[27] = test system: SR; experiment: NCI 60 panel growth inhibition (SRB), leukemia; type: cell-based, human; conditions: for GI%: 10 μM
Outline: as §1

[28] = test system: CCRF-CEM; experiment: NCI 60 panel growth inhibition (SRB), leukemia; type: cell-based, human; conditions: for GI%: 10 μM
Outline: as §1

[29] = test system: K-562; experiment: NCI 60 panel growth inhibition (SRB), leukemia; type: cell-based, human; conditions: for GI%: K-562, 10 μM
Outline: as §1

Chain of CDK5 (Q00535 whole entry, species assumed): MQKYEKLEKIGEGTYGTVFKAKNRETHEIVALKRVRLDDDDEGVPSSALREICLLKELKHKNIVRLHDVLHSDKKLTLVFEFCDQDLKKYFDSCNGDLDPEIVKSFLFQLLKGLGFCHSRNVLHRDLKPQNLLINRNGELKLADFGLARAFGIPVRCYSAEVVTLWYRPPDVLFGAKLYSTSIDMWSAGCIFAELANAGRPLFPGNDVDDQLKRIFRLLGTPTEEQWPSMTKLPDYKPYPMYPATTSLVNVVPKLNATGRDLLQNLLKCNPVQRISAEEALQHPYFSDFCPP
Chain of CDK5 (Q15078 99-307 partner limits assumed, species assumed): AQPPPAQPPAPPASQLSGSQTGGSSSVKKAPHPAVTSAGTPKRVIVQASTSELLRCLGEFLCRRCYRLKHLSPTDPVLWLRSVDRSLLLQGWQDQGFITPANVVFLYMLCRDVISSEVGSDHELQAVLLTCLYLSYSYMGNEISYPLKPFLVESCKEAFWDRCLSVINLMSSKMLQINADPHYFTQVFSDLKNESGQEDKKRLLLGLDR
Chain of VEGFR-2 (P35968 20-1356, species assumed): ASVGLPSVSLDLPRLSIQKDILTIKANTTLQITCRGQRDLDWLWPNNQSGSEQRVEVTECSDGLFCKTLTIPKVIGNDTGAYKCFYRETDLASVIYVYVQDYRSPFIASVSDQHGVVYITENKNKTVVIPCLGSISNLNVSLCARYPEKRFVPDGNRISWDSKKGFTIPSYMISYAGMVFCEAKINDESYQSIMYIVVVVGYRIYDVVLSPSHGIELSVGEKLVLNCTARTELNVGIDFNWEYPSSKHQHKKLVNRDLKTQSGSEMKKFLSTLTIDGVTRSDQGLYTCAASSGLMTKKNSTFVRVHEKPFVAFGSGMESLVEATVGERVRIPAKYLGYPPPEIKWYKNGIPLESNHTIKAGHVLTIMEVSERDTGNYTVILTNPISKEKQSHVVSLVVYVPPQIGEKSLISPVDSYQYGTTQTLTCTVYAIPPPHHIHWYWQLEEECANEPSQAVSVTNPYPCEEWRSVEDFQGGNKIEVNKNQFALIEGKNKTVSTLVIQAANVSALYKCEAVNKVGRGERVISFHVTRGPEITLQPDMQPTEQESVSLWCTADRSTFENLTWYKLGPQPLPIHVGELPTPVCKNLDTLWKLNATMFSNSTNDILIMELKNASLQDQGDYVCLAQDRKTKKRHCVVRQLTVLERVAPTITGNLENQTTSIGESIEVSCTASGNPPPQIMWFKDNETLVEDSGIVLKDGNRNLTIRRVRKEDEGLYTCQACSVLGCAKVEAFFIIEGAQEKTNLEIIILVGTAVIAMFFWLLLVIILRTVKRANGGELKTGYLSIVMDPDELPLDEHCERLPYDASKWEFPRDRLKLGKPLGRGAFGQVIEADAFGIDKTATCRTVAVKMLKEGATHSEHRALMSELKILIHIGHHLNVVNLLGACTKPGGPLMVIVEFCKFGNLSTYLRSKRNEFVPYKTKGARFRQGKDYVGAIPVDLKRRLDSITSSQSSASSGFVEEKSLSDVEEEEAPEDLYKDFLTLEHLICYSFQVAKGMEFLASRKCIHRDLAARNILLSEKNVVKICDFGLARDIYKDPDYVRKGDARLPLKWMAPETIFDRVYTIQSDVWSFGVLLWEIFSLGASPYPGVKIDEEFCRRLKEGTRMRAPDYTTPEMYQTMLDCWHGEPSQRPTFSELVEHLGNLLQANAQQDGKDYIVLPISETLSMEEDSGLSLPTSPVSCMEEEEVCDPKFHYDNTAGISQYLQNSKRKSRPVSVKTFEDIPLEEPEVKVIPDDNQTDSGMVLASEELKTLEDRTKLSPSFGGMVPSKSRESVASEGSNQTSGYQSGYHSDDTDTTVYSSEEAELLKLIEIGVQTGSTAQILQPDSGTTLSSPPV

COc1ccc2c(c1)C(=NNC(=O)COc1cc(-c3nc4ccccc4s3)ccc1OC)C(=O)N2 [Compound 9o, 2-(5-(Benzo[d]thiazol-2-yl)-2-methoxyphenoxy)-N′-(5-methoxy-2-oxoindolin-3-ylidene)acetohydrazide]
IC50 [1]: > 10 µM | GI50 ([2]; Homo sapiens, SK-MEL-2, five dose): > 100 µM | GI% ([2]; SK-MEL-2, 10 μM): 26.06% | GI% [3]: 75.63% | GI50 ([3]; Homo sapiens, 786-0, five dose): 16.1 µM | GI50 ([4]; Homo sapiens, UO-31, five dose): 2.03 µM | GI% [4]: 44.24% | GI50 ([5]; Homo sapiens, TK-10, five dose): 71.7 µM | GI% [5]: 86.88% | GI50 ([6]; Homo sapiens, RXF 393, five dose): 5.06 µM | GI% [6]: 129.01% | GI50 ([7]; Homo sapiens, SF-268, five dose): > 100 µM | GI% [7]: 51.91% | GI50 ([8]; Homo sapiens, SF-295, five dose): 11.8 µM | GI% [8]: 31.59% | GI% [9]: – (GI% < 5%) | GI50 ([10]; Homo sapiens, SF-539, five dose): 39.9 µM | GI% [10]: 12.44% | GI50 ([11]; Homo sapiens, U-251, U251, five dose): 2.02 µM | GI% [11]: 143.46% | GI50 ([12]; Homo sapiens, SNB-19, five dose): 5.72 µM | GI% [12]: 49.50% | GI50 ([13]; Homo sapiens, OVCAR-5, five dose): > 100 µM | GI% [13]: 9.28% | GI50 ([14]; Homo sapiens, SK-OV-3, five dose): 48.9 µM | GI% [15]: 130.36% | GI50 ([15]; Homo sapiens, five dose): 18.5 µM | GI50 ([16]; Homo sapiens, OVCAR-4, five dose): > 100 µM | GI% [16]: 68.35% | GI50 ([17]; Homo sapiens, OVCAR-8, five dose): 4.02 µM | GI% [17]: 93.38% | GI50 ([18]; Homo sapiens, OVCAR-3, five dose): 2.49 µM | GI% [18]: 94.12% | GI50 ([19]; Homo sapiens, IGROV-1, IGROV1, five dose): 2.22 µM | GI% [19]: 18.68% | melting point: 199 to 201 °C | kinase selectivity ([20]; from IC50 of Tables 4 and 5): higher selectivity toward CDK2 and CDK5 over CDK1, VEGFR-2 and FGFR-1 | IC50 [20]: 0.21 ± 0.015 µM | IC50 [21]: 0.34 ± 0.02 µM | GI% [22]: 20.32% | GI50 ([22]; Homo sapiens, HT-29, HT29, five dose): 26.8 µM | GI50 ([23]; Homo sapiens, five dose, NCI cancer cell lines, read-out: GI50 reached (most sensitive NCI cell line)): 2.02 µM | Mean GI% [23]: 55.91% | GI50 ([24]; Homo sapiens, RPMI-8226, five dose): 61.4 µM | GI% [24]: 66.93% | GI50 ([25]; Homo sapiens, MOLT-4, five dose): 5.05 µM | GI% [25]: 36.32% | GI% [26]: 7.99% | GI50 ([26]; Homo sapiens, HL-60 (TB), five dose): > 100 µM | GI% [27]: 35.47% | GI50 ([27]; Homo sapiens, five dose): 20.9 µM | GI% [28]: 57.64% | GI50 ([28]; Homo sapiens, five dose): 6.08 µM | GI50 ([29]; Homo sapiens, K562, K-562, five dose): 3.75 µM | GI% [29]: 64.36%

O=C(COc1ccccc1-c1nc2ccccc2s1)NN=C1C(=O)Nc2ccc(Br)cc21 [Compound 9f, 2-(2-(Benzo[d]thiazol-2-yl)phenoxy)-N′-(5-bromo-2-oxoindolin-3-ylidene)acetohydrazide]
GI% [3]: 101.23% | GI% [4]: 21.89% | GI% [5]: 55.14% | GI% [6]: 82.91% | GI% [7]: 45.84% | GI% [8]: 32.61% | GI% [9]: 84.86% | GI% [10]: 110.59% | GI% [11]: 86.92% | GI% [12]: 81.08% | GI% [13]: – (GI% < 5%) | GI% ([14]; SK-OV-3, 10 μM): 17.03% | GI% [15]: 49.76% | GI% [16]: 90.58% | GI% [17]: 71.28% | GI% [18]: 81.63% | GI% [19]: 42.62% | melting point: 261 to 263 °C | IC50 [20]: 0.2 ± 0.035 µM | GI% [22]: – (GI% < 5%) | Mean GI% [23]: 43.78% | GI% [24]: 29.01% | GI% [25]: 36.74% | GI% [26]: 29.39% | GI% [27]: 43.03% | GI% [28]: 21.91% | GI% [29]: 22.52%
